Measurements from patent US11453640B2, “Small molecules for disrupting the super elongation complex and inhibiting transcription elongation for cancer therapy” (NORTHWESTERN UNIVERSITY, priority 2018, dated 2022).

Biological target: T1, AFF4-CCNT1 interaction (GST-CCNT1 AA 1-300 and biotin-AFF4 peptide AA 32-67) (Homo sapiens, UniProt O60563)
T1 construct: Recombinant GST-CCNT1 (1-300), which was purified by Glutathione Superflow Agarose from Rosetta cells; VCPBIO (peptide synthesis) Addgene P#432; host or cells: Rosetta cells
T1 sequence (O60563 1-300): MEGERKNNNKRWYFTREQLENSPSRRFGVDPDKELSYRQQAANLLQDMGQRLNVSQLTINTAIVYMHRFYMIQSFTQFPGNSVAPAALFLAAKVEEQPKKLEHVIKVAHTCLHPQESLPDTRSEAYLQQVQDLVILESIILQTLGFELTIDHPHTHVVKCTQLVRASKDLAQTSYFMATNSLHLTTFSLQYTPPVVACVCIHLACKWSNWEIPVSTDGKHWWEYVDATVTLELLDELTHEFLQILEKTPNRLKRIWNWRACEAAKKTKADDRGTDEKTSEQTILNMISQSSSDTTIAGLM
Assay: AlphaLISA assay of the AFF4-CCNT1 interaction (Alpha Screen)
Format: binding
Text: FIG. 1. Peptidomimetic identification of disruptors of the AFF4-CCNT1 interaction within the Super Elongation Complex. (A) Schematic for the identification of small molecule inhibitors of the AFF4-CCNT1 interaction using in silico high-throughput screening. Compounds from the ZINC database were docked with the AFF4-CCNT1 structure (4IMY) using a three-tier glide-docking algorithm, which led to 40 candidates. Residues forming the deep binding pocket of CCNT1 are labeled orange and residues of the AFF4 peptide are labeled red. (B) Validation screening identified KL-1 as a potential SEC disruptor using AlphaLISA screening. GST-CCNT1 (AA 1-300) and biotin-labeled AFF4 peptide (AA 32-67) were used to measure the AFF4-CCNT1 interaction with the AlphaLISA assay. (C) Similarity search for KL-1-like molecules identified KL-2. The peptidomimetic potential of KL-1 and KL-2 can be seen by overlaying them with the AFF4 peptide LFAEP structure. (D) Dose-dependent inhibition of KL-1 and KL-2 on AFF4-CCNT1 interaction. The Ki constants of both compounds were measured with the AlphaLISA assays. (E) Treatment of HEK293T cells with KL-1 and KL-2 results in reduced protein levels of SEC components AFF1 and AFF4 but not CDK9 or CCNT1. HEK293T cells were treated with 20 μM of SEC inhibitors KL-1 or KL-2 for 6 hr. 5 μl, 10 and 20 μl cell lysates were loaded and the protein levels of AFF1, AFF4, CCNT1, CDK9 and Tubulin (load control) were determined by western blotting.
FIG. 8, related to FIG. 1. Peptidomimetic identification of disruptors of the AFF4-CCNT1 interaction within the Super Elongation Complex. (A) Schematic of AlphaLISA assay of the AFF4-CCNT1 interaction. Anti-GST AlphaLISA acceptor beads and AlphaScreen streptavidin donor beads (Perkin Elmer) were used to detect the interaction of GST-CCNT1 (AA1-300) and biotin-AFF4 (AA32-67). (B-C) Optimization of the AlphaLISA assay with various biotin-AFF4 peptide and GST-CCNT1 concentrations. No CCNT1 (B) and mutant AFF4 (C) were used as negative controls. Data are represented as Mean+/−SD. (D) Scheme for chemical synthesis of SEC inhibitors KL-1 and KL-2. Reagents and conditions: a. LDA, THF, −78° C., 15 min., then diethyl oxalate, −78° C. to room temperature. b. NaOH, THF/H2O, room temperature, 15 min. c. EEDQ, 5-chloro-2-methylaniline, THF, room temperature, 24 hr. […] 293T cells were treated with 20 μM of KL-1 or KL-2 for 6 hr, and the protein levels of BRD2, BRD4, Pol II (RPB1), SPT5, MED26, MYC, HSP90 (load control) and Tubulin (load control) were measured by western blotting. (F) Treatment of HCT-116 cells with KL-1 and KL-2 reduced protein levels of SEC components AFF1 and AFF4 but not CDK9 or CCNT1. HCT-116 cells were treated with 20 μM of KL-1 or KL-2 for 6 hr, and the protein levels of AFF1, AFF4, CCNT1, CDK9 and Tubulin (load control) were determined by western blotting. (G-H) Treating cells with KL-1 and KL-2 results in reduced levels of AFF 1 and AFF4. FLAG-AFF1 (G) and FLAG-AFF4 (H) were expressed under the Tet-inducible promoter in HEK293T cells. Cells were treated with 20 μM of the indicated inhibitors for 6 hr for western blotting. […] RNA-seq was performed in HEK293T cells treated for 12 hr with 20 μM of the indicated inhibitors. The log2CPM (counts per million) of the SEC subunits were calculated with HTseq. KL-1 and KL-2 had no significant effects on CCNT1, CDK9 and AFF1 expression, but modest increases in the mRNA levels of AFF4 and ELL2 were observed (n=3). Unpaired two-way ANOVA was used for the statistical testes. **,p<0.05, ***,p<0.001.
To test if candidate compounds can disrupt the AFF4-CCNT1 interaction in vitro, we established and optimized a bead-based AlphaLISA assay with recombinant CCNT1 (1-300) protein and synthesized Biotin-AFF4 peptides (AA 32-67) (FIGS. 8A, 8B and 8C).
AlphaLISA Assay. The interaction of CCNT1-AFF4 was measured by Perkin Elmer's bead-based AlphaLISA assays. […]

With `COc1cccc(C(=O)CC(=O)C(=O)Nc2cc(Cl)ccc2C)c1` [KL-1, N-(5-chloro-2-methylphenyl)-4-oxo-4-(3-methoxyphenyl)-2-oxobutanamide] as the compound, how does the Ki (AlphaLISA, IC50 converted to Ki with the Cheng and Prusoff equation, read-out: Ki, inhibition of the AFF4-CCNT1 interaction) read?
Its Ki is 3.48 µM.

And the “disruption of the AFF4-CCNT1 interaction” value (tested at 20 μM)?
Its value is “could inhibit the interaction of AFF4-CCNT1”.
